Test results taken from PMC3090393, “New Noncovalent Inhibitors of Penicillin-Binding Proteins from Penicillin-Resistant Bacteria” (PLoS ONE, 2011).
In brackets after ≈: the same amount, converted by molar mass.

Legend:
[1] = test system: Staphylococcus epidermidis ATCC 12228; experiment: In-vitro antibacterial activity (MIC, broth microdilution); format: cell-based; conditions: ATCC12228
Method: (§1) Determination of the antibacterial activities was carried out on microtiter plates, in 200 µL (final volume) of Müeller-Hinton Broth (MHB), following EUCAST (European Committee on Antimicrobial Susceptibility testing)/CLSI (Clinical and Laboratory Standard Institute) recommended procedures, [25]. The compounds were solubilized in MHB, just before use. Inocula were prepared for each strain by resuspending isolated colonies from 18 h cultured plates. Equivalents of 0.5 Mac Farland turbidity standards (approximately 1×10^8 CFU mL^−1) were prepared in saline solution ([…]) and then diluted 200-fold in MBH.

[2] = test system: Listeria monocytogenes ATCC 14780; experiment: as above; format: cell-based; conditions: ATCC14780
Method: as §1

[3] = test system: Staphylococcus aureus ATCC 43300 (MRSA); experiment: as above; format: cell-based
Method: as §1

[4] = test system: Enterococcus faecalis ATCC 29212; experiment: as above; format: cell-based; conditions: ATCC29212
Method: as §1

[5] = test system: Bacillus subtilis ATCC 6633; experiment: as above; format: cell-based; conditions: ATCC6633
Method: as §1

[6] = test system: Escherichia coli ATCC 8739; experiment: as above; format: cell-based; conditions: ATCC8739
Method: as §1

[7] = test system: Streptococcus pneumoniae ATCC 33400; experiment: as above; format: cell-based; conditions: ATCC33400
Method: as §1

[8] = test system: Staphylococcus aureus mp 1 (inducible MRSA); experiment: as above; format: cell-based
Method: as §1

[9] = test system: Micrococcus luteus ATCC 9341; experiment: as above; format: cell-based; conditions: ATCC9341
Method: as §1

[10] = test system: Pseudomonas aeruginosa ATCC 27853; experiment: as above; format: cell-based; conditions: ATCC27853
Method: as §1

[11] = test system: Streptococcus pneumoniae D39; experiment: as above; format: cell-based
Method: as §1

[12] = test system: Citrobacter freundii ATCC 8090; experiment: as above; format: cell-based; conditions: ATCC8090
Method: as §1

[13] = test system: Enterococcus faecalis ATCC 7937; experiment: as above; format: cell-based; conditions: ATCC7937
Method: as §1

[14] = test system: Klebsiella pneumoniae ATCC 13883; experiment: as above; format: cell-based; conditions: ATCC13883
Method: as §1

[15] = test system: Proteus mirabilis ATCC 29936; experiment: as above; format: cell-based; conditions: ATCC29936
Method: as §1

[16] = test system: Streptococcus pneumoniae ATCC 49619; experiment: as above; format: cell-based; conditions: ATCC49619
Method: as §1

[17] = test system: Enterococcus faecium ATCC 19434; experiment: as above; format: cell-based; conditions: ATCC19434
Method: as §1

[18] = test system: Enterococcus hirae ATCC 8790; experiment: as above; format: cell-based; conditions: ATCC8790
Method: as §1

[19] = test system: Staphylococcus aureus ATCC 25923; experiment: as above; format: cell-based; conditions: ATCC25923
Method: as §1

[20] = test system: Listeria innocua ATCC 33090; experiment: as above; format: cell-based; conditions: ATCC33090
Method: as §1

PBP2a = target: T1, PBP2a (Staphylococcus aureus, UniProt P07944); experiment: PBP2a enzymatic inhibition assay (fluorescein-labeled ampicillin, residual penicillin binding activity); format: biochemical, Staphylococcus aureus ATCC 43300; conditions: for remaining activity at 1000 µM: 4 h, residual activity of the enzyme at 1 mM inhibitor, 0.01% Triton X-100, mean of three experiments, read-out: PBP2a RA [%]
T1 construct: made in house
T1 sequence (P07944 whole entry): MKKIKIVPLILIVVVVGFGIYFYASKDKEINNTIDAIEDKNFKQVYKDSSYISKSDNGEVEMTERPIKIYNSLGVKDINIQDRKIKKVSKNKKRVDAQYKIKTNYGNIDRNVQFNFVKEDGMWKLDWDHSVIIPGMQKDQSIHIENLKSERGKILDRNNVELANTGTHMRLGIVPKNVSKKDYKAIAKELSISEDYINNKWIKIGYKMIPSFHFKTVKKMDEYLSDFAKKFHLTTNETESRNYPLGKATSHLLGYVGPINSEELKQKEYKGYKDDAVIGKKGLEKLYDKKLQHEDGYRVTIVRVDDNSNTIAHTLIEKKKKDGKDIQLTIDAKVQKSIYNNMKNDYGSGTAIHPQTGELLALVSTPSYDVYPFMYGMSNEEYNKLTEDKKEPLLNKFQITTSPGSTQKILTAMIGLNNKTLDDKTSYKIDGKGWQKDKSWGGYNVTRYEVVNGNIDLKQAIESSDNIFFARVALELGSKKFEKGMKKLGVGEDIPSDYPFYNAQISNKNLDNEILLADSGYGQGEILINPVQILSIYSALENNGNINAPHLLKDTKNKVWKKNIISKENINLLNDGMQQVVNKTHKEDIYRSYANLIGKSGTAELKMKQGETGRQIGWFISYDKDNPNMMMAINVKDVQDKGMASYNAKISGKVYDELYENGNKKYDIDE
Method: (§2) PBP2a from Staphylococcus aureus ATCC 43300 and PBP5fm from Enterococcus faecium D63r were overproduced and purified as described previously, [18].
(§3) Each of the purified PBPs (2.5 µM) were first incubated with 1 mM potential inhibitor in 100 mM phosphate buffer, 0.01% Triton X-100[19], pH 7, for 4 h at 30°C. Then, 25 µM fluorescein-labeled ampicillin[20] was added to detect the residual penicillin binding activity (RA). The samples were further incubated for 30 min at 37°C in a total volume of 20 µL. Denaturation buffer was added (0.1 M Tris/HCl, pH 6.8, containing 25% glycerol, 2% SDS, 20% β-mercaptoethanol and 0.02% bromophenol blue) and the samples were heated to 100°C for 1 min. The samples were then loaded onto a 10% SDS-acrilamide gel (10×7 cm) and electrophoresis was performed for 45 min at 180 V (12 mA). Detection and quantification of the RAs were with Molecular Image FX equipment and Quantity One software (BioRad, Hercules, CA, USA). Three independent experiments were carried out for each inhibitor.

PBP2x 5204 = PBP2x 5204 (Streptococcus pneumoniae, UniProt P59676); experiment: PBP2x 5204 enzymatic inhibition assay (S2d hydrolysis, DTNB); format: biochemical, Streptococcus pneumoniae strain 5204; conditions: residual activity of the enzyme at 1 mM inhibitor; 240 min
Chain of PBP2x 5204 (P59676 49-750): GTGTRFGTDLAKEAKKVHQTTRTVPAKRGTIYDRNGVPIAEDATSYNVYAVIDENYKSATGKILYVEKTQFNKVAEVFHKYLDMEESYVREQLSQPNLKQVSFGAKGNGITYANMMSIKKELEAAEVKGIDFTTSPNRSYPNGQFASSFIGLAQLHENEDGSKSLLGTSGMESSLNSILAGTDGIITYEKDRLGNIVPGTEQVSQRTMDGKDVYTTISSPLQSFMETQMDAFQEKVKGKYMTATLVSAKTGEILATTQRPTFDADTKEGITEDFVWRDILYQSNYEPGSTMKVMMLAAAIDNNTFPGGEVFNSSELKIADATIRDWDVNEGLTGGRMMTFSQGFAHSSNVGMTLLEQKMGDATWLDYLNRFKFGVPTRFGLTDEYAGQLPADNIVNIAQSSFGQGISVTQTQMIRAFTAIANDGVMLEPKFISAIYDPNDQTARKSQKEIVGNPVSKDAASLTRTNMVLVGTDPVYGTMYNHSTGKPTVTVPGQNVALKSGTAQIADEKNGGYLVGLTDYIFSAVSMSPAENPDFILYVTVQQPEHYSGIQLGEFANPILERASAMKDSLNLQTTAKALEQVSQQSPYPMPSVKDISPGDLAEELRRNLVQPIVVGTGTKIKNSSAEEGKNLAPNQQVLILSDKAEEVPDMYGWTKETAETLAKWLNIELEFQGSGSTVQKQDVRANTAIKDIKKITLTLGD
Method: PBP2x-5204 from Streptococcus pneumonia and N-benzoyl-D-alanyl-thioglycolate S2d[21], [22] were prepared as previously described. All assays with PBP2x 5204 were carried out in 96-well microtiter plates (Brand, Wertheim, Germany). PBP2x 5204 (0.6 µM) was incubated in the presence of the potential inhibitors in 10 mM sodium phosphate buffer (pH 7.0) containing 70 mM D-alanine and 0.01 mg/mL BSA, for 4 h at 25°C. This preincubation was used to also detect slow binding inhibitors. After the preincubation, the RA of PBP2x 5204 was determined. The initial rate of hydrolysis of 1 mM S2d in the presence of 1 mM DTNB was determined by monitoring the increase in absorbance at 412 nm (DTNB: ε[Δ ε] = […]) using a microplate absorbance reader (Power Wave X, Biotek Instruments, Winooski, U.S.A.). The rate of spontaneous hydrolysis of S2d in the presence of the potential inhibitors was also determined in the absence of PBP2x 5204. All of the assays were carried out in triplicate. The determination of the RA of PBP2x 5204 in the absence of inhibitors was carried out six times on each plate. A test compound was considered as an inhibitor if the RA was <80%. In this case, to reveal false positives, the assays were also carried out under the same conditions in the presence of 0.01% Triton X-100. As described in the literature, promiscuous inhibitors (false positives) are slow binding, noncompetitive inhibitors. To avoid detailed kinetic investigations, it is possible to identify such compounds by carrying out the assays in the presence of Triton X-100[14], [19]. Promiscuous inhibitors show no inhibition in the presence of Triton X-100. The IC50 values in the presence of Triton X-100 were determined if the RAs were <50%. (RA: ∼50%, IC50∼c, c: concentration of compound in the assay; RA >50%, IC50 > c). The RA was measured over a range of concentrations, from which the IC50 values were determined by non-linear regression analysis, using Sigma Plot (Systat software) and fitting the data to the equation y = y0+(a×b)/(b+x)[23].

PBP5fm = PBP5fm (Enterococcus faecium, UniProt Q47759); experiment: PBP5fm enzymatic inhibition assay (fluorescein-labeled ampicillin, residual penicillin binding activity); format: biochemical, Enterococcus faecium D63r; conditions: 4 h; residual activity of the enzyme at 1 mM inhibitor; 0.01% Triton X-100; read-out: PBP5fm RA [%]
Chain of PBP5fm (Q47759 entry or part of it): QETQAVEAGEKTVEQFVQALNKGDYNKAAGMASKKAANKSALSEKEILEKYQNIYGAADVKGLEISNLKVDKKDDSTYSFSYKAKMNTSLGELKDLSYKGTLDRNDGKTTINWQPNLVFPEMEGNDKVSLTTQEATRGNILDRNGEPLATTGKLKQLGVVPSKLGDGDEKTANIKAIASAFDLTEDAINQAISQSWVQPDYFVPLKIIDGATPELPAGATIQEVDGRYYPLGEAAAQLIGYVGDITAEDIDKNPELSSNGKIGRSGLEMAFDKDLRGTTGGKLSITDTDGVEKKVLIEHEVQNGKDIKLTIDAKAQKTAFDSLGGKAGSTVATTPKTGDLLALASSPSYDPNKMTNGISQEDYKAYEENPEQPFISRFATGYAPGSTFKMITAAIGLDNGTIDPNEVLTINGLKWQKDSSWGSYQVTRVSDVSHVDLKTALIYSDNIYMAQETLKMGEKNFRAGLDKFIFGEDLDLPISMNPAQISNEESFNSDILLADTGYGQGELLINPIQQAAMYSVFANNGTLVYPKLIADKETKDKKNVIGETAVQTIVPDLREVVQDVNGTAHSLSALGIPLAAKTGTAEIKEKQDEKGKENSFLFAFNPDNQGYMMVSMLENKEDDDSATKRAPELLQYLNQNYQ
Method: as §2, §3

SMILES	MIC [1] [µg/mL]	MIC [2] [µg/mL]	MIC [3] [µg/mL]	MIC [4] [µg/mL]	MIC [5] [µg/mL]	MIC [6] [µg/mL]	MIC [7] [µg/mL]	MIC [8] [µg/mL]	MIC [9] [µg/mL]	MIC [10] [µg/mL]	MIC [11] [µg/mL]	MIC [12] [µg/mL]	MIC [13] [µg/mL]	MIC [14] [µg/mL]	MIC [15] [µg/mL]	MIC [16] [µg/mL]	MIC [17] [µg/mL]	remaining activity at 1000 µM (PBP2a) [%]	PBP2x5204 RA [%] (PBP2x 5204)	activity at 1000 µM (PBP5fm) [%]	further results
CC1(C)S[C@@H]2[C@H](NC(=O)[C@H](N)c3ccccc3)C(=O)N2[C@H]1C(=O)O [Ampicillin, reference compound]	16 (≈ 45.8 µM)	0.5 (≈ 1.43 µM)	1020 (≈ 2930 µM)	2 (≈ 5.72 µM)	0.5 (≈ 1.43 µM)	4 (≈ 11.4 µM)	0.03 (≈ 0.0859 µM)	1020 (≈ 2930 µM)	0.5 (≈ 1.43 µM)	> 1020	0.06 (≈ 0.172 µM)	128 (≈ 366 µM)	2 (≈ 5.72 µM)	256 (≈ 733 µM)	2 (≈ 5.72 µM)	0.06 (≈ 0.172 µM)	64 (≈ 183 µM)	–	–	–	MIC [18]: 64 µg/mL (≈ 183 µM); MIC [19]: 0.25 µg/mL (≈ 0.715 µM); MIC [20]: 0.25 µg/mL (≈ 0.715 µM)
CCCOc1ccc(C(=O)Nc2ccc(Br)cc2C(=O)O)cc1 [compound 6, 5-Bromo-2-(4-propoxybenzamido)benzoic acid]	16 (≈ 42.3 µM)	64 (≈ 169 µM)	128 (≈ 338 µM)	32 (≈ 84.6 µM)	128 (≈ 338 µM)	> 512	64 (≈ 169 µM)	128 (≈ 338 µM)	32 (≈ 84.6 µM)	> 512	16 (≈ 42.3 µM)	> 512	64 (≈ 169 µM)	> 512	> 512	32 (≈ 84.6 µM)	256 (≈ 677 µM)	0	41	68	IC50 (PBP2a; in the presence of 0.01% Triton X-100): 210 µM; MIC [18]: 32 µg/mL (≈ 84.6 µM); MIC [19]: 16 µg/mL (≈ 42.3 µM); MIC [20]: 64 µg/mL (≈ 169 µM)
CCOc1ccc(S(=O)(=O)Nc2ccc(C(=O)O)cc2)cc1 [compound 5, 4-(4-Ethoxyphenylsulfonamido)benzoic acid]	–	–	–	–	–	–	–	–	–	–	–	–	–	–	–	–	–	86	81	73	–
CCOc1ccc(NS(=O)(=O)c2ccc(C(=O)O)cc2)cc1 [compound 4, 4-(N-(4-Ethoxyphenyl)sulfamoyl)benzoic acid]	–	–	–	–	–	–	–	–	–	–	–	–	–	–	–	–	–	83	101	100	–
CCCOc1ccc(C(=O)Nc2ccc(O)cc2C(=O)O)cc1 [compound 7, 5-Hydroxy-2-(4-propoxybenzamido)benzoic acid]	–	–	–	–	–	–	–	–	–	–	–	–	–	–	–	–	–	74	65	72	–
O=S(=O)(Nc1ccc(O)cc1)c1cccc2cccnc12 [compound 3, N-(4-Hydroxyphenyl)quinoline-8-sulfonamide]	–	–	–	–	–	–	–	–	–	–	–	–	–	–	–	–	–	67	80	65	–
